Two compounds from PMC11613437, “Prioritization of Eleven-Nineteen-Leukemia Inhibitors as Orally Available Drug Candidates for Acute Myeloid Leukemia” (Journal of Medicinal Chemistry, 2024) can be followed below.

A short description of data set [1]: Cell toxicity assay (CCK-8), MV4-11. As to conditions: human, MV4-11 cells, 8 day treatment, n = 3; read-out: CC50 MV4-11 (Cellular IC50, 8-days incubation). It counts as cell-based. On the procedure:
Approximately 1 × 10^4 JURKAT, MOLM-13, MV4-11 and HEK293T cells in RPMI 1640 (no phenol red) (100 μL) were added to a 96-well plate and treated with DMSO or a compound at indicated concentrations for 72 h or 8 days. Cell viability was measured using the CCK-8 kit (Abcam, ab228554) according to the manufacturer’s instructions.

The next data set has as its target T1, NLuc-ENL YEATS (Homo sapiens, UniProt Q03111).
T1 construct: DNA encoding the ENL YEATS domain (aa 1–148) was cloned into an NLuc containing plasmid; expressed in transfected cells
T1 sequence (Q03111 1-148): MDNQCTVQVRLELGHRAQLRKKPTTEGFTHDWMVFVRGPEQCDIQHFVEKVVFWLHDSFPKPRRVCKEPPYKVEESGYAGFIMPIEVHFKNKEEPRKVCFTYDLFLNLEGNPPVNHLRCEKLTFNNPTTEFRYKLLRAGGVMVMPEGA
As to the kind of experiment: ENL-NanoBRET inhibitor competitive assay. As to conditions: HEK293T cells stably expressing NLuc-ENL YEATS, 1 μM Tracer 2, 2 h; mean ± SD, n = 3. It counts as cell-based. On the procedure:
Approximately 1.8 × 10^4 HEK293T cells (100 μL) stably expressing NLuc-ENL YEATS were seeded into a white nonbinding 96-well assay plate and incubated overnight at 37 °C in a humidified 5% CO2 atmosphere. After removal of the medium, the cells were added with a tracer (with or without excess of unlabeled compound) in the Opti-MEM with 0.1% DMSO. After incubation at 37 °C for 2 h the assay plate was equilibrated at room temperature for 15 min. For BRET detection, the NanoGlo Substrate and the extracellular NanoLuc inhibitor (Promega, N2160) were diluted with Opti-MEM as described in protocol to afford detection solution. 50 μL of the detection solution was added per well and the plate was incubated for 3 min at room temperature. The donor emission was measured at 450 nm and the acceptor emission at 610 nm using a BioTek SYNERGY neo2 multimode reader. The BRET ratio was calculated according to the following formula: BRET ratio = [(acceptorsample/donorsample) – (acceptorno-tracer control/donorno-tracer control)] × 1000.
Sample procedures were followed for cell seeding as described in the previously described tracer affinity assay. After removal of the medium, the cells were added with a tracer in the medium (1.1 μM, 100 μL) and varied concentrations of a test compound in 0.1% DMSO (10 μL). The plate was thoroughly mixed on an orbital shaker for 15 s at 900 rpm. Then the cells were incubated at 37 °C, 5% CO2 for 2 h for BRET ratio detection as described previously.
(Bioluminescence resonance energy transfer reports proximity on the nanometre scale.)

Another data set addresses T2, ENL YEATS (Homo sapiens, UniProt Q03111).
T2 construct: final concentrations of 100 nM His-ENL YEATS, 100 nM Biotin-ENL-S1
T2 sequence (Q03111 1-138 limits assumed): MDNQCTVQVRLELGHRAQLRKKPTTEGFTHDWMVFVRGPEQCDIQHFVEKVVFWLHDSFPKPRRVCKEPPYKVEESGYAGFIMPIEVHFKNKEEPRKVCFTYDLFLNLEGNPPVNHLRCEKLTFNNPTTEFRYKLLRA
Nature of the data set: AlphaScreen assay with biotinylated ENL-S1 peptide. As to conditions: inhibition of ENL YEATS binding to ENL-S1 peptide; mean ± SD, n = 3; read-out: Alpha IC50 (nM) for ENL YEATS. On the procedure:
The AlphaScreen assay was carried out in 384-well plates. Manual assay setup was performed in a 40 μL reaction buffer (50 mM HEPES pH 7.4, 100 mM NaCl, 0.1% bovine serum albumin, and 0.05% CHAPS) with final concentrations of 100 nM His-ENL YEATS, 100 nM Biotin-ENL-S1, and 20 μg/mL of AlphaScreen donor and acceptor beads. The protein, peptide, and compounds were mixed and incubated for 1 h at room temperature and then incubated for 30 min in dark after adding the α beads. AlphaScreen-signals were detected by a multimode microplate reader (BioTeK Synergy Neo2) equipped with an Alpha-laser (PerkinElmer).
(Bead proximity is the source of the signal in Alpha formats.)

Another data set concerns MOLM-13 and MV4-11 cells. Nature of the data set: Cell cycle analysis. The class given is cell-based. As to conditions: 72 h treatment. On the procedure: For cell cycle analysis, 5 × 10^6 cells were cultured at 2 mL/well in a 6-well plate treated in a ratio of 1:1000 with compound stocks in DMSO or 1:1000 with DMSO in triplicate. Cell cycle staining was performed by using a cell cycle analysis kit (Abcam, ab287852) and treated according to the protocol provided. The signal was analyzed by flow cytometry and the cytometry results were analyzed by CytExpert software.

A short description of the next data set: PK analysis in mice. The class given is in vivo. Particulars: plasma; for half-life at 24 h: read-out: t1/2 (h), PO (converted). On the procedure:
Male CD-1 mice were used in the PK study. A compound was dissolved in a mixed solution containing 75% PEG300 and 25% D5W (5% dextrose in distilled water) or another solution containing 0.5% methyl cellulose and 0.5% Tween 80 in water at indicated dosage for i.v. and p.o. administrations, respectively. Three mice were used for each administration. Blood samples were taken from a vein at different time points up to 24 h after dosing, collected in tubes coated with an anticoagulant, and centrifuged at 1.5 × 10^4 g for 5 min to obtain plasma samples. Acetonitrile-containing internal standard (Labetalol, 100 ng/mL) was added to the plasma to precipitate proteins. The samples were subjected to vortex mixing for 10 min and then centrifugation at 4 °C for 15 min at 3220g. Then clear supernatants were analyzed by HPLC-MS/MS.

Where [2] appears, read: mouse, male CD-1 mice, PO 20 mg/kg, read-out: AUC0–inf, oral.
[3] abbreviates: mouse, male CD-1 mice, PO 20 mg/kg.

Where two headings read alike, the source gives them in different places.

For orientation: IC50 means the concentration that inhibits the measured activity by half. As to `CC(C)[C@H]1CCN1Cc1cc2cnc(NC(=O)c3ccc4nncn4c3)cc2[nH]1` [SR-C-107 (R), (R)-N-(2-((2-Isopropylazetidin-1-yl)methyl)-1H-pyrrolo[3,2-c]pyridin-6-yl)-[1,2,4]triazolo[4,3-a]pyridine-6-carboxamide], the half-inhibitory concentration (IC50) at 8 days in data set [1] came out at 810 ± 150 nM. In addition, the IC50 at NLuc-ENL YEATS is 590 nM; on ENL YEATS, 40 nM. Moreover, in the data set with MOLM-13 and MV4-11 cells, the “cell cycle: G1 phase” value was “increase in the G1 phase”. Further, the Cmax in the data set “PK analysis in mice” (male, CD-1, mouse, mice, PO 20 mg/kg, corresponds to 285 ng/mL, read-out: oral Cmax expressed as effective concentration) worked out at 750 nM; in “PK analysis in mice” (mouse, male CD-1 mice, PO 20 mg/kg, read-out: Cmax, oral), 285 ng/mL. In the data set “PK analysis in mice” (setting [2]), the AUC(0-inf) amounted to 808 ng·h/mL. Moreover, the half-life at 24 h in the data set “PK analysis in mice” (setting [3]) is 1.41 h.

Take `CC(C)C1CCN1Cc1ccc(CNC(=O)c2ccc3nncn3c2)cc1` (stereo not shown) [inhibitor 13]: in data set [1], the IC50 at 8 days came out at 6720 nM. Further, on NLuc-ENL YEATS, the IC50 worked out at 4290 nM. Further, the 50% inhibitory concentration (IC50) on ENL YEATS worked out at 1260 ± 128 nM. Also, in the data set on MOLM-13 and MV4-11 cells, the “cell cycle: G1 phase” value is reported as “increase in the G1 phase”. Also, the half-life in “PK analysis in mice” (mouse, male CD-1 mice, IV 20 mg/kg, read-out: t1/2, IV (converted)) was 1.05 ± 0.03 h. Further, in “PK analysis in mice” (setting [3]), the Cmax at 24 h was determined as 2080 ng/mL and the half-life at 24 h was 0.84 h. Moreover, the AUC(0-inf) at 24 h in “PK analysis in mice” (setting [2]) worked out at 5140 ng·h/mL.
